≈ marks a conversion by molar mass, not a printed value.

Common to all, as to type: cell-based
In assay [1] the test system is Xantomonas maltophilia E 04004. Nature of the assay: Comparison test of anti-bacterial activity (MIC). The conditions noted are these: 18 h, comparison R1 = CH2F vs CH3. The protocol: (§1) MIC (μg/ml) were determined by an agar dilution method [Chemotherapy (Japan), 29, 76-79, 1981]. Overnight cultures of the bacterial strains in Mueller-Hinton broth were diluted to final concentration of about 10^6 CFU/ml, and 5 μl of each bacterial suspension was spotted onto Mueller-Hinton agar plates that contained twofold serial dilutions of antibiotics. MICs were measured after incubation for 18 hours at 37° C.
(§2) Comparison tests of the anti-bacterial activities were conducted between the compounds of the following formula according to the present invention and the corresponding control compounds wherein R1 represents methyl group. Measurements of MIC are the same as described in the above item 2.

The subject of assay [2] is Proteus vulgaris E 08042. Nature of the assay: Comparison test of anti-bacterial activity (MIC). The conditions noted are these: E08042, 18 h, comparison R1 = CH2F vs CH3. On the procedure: as §1, §2
For assay [3], the system named is Staph. aureus E 31106. Put plainly: Comparison test of anti-bacterial activity (MIC). The conditions noted are these: Staphylococcus aureus, E31106, 18 h, comparison R1 = CH2F vs CH3. On the procedure: as §1, §2
The test system of assay [4] is Enterobacter cloacae E-74. Nature of the assay: Comparison test of anti-bacterial activity (MIC). The conditions noted are these: E74, 18 h, comparison R1 = CH2F vs CH3. On the procedure: as §1, §2
In assay [5] the test system is Kleb. pneumoniae EK-6. Nature of the assay: Anti-bacterial activity (MIC), agar dilution. The conditions noted are these: Klebsiella pneumoniae, EK6, 18 h, Kleb. pneumoniae EK-6; agar dilution, about 10^6 CFU/ml, 18 hours, 37° C.; read-out: MIC. The essentials: (§3)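 Read-out is MIC (μg/ml) after 18 hours at 37° C on Mueller-Hinton agar with twofold antibiotic series. Inoculum: overnight broth cultures diluted to ~10^6 CFU/ml, spotted.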
In general terms: In agar dilution the substance is mixed into plates at graded concentrations.

In assay [6] the test system is Escher. coli NIHJ. Nature of the assay: Anti-bacterial activity (MIC), agar dilution. The conditions noted are these: Escherichia coli, 18 h, Escher. coli NIHJ; agar dilution, about 10^6 CFU/ml, 18 hours, 37° C.; read-out: MIC. The essentials: as §3
The subject of assay [7] is Pseud. aeruginosa EP-01. Put plainly: Anti-bacterial activity (MIC), agar dilution. The conditions noted are these: Pseudomonas aeruginosa, EP01, 18 h, Pseud. aeruginosa EP-01; agar dilution, about 10^6 CFU/ml, 18 hours, 37° C.; read-out: MIC. The essentials:
as §3

In assay [8] the test system is Staph. aureus 209-P. Put plainly: Anti-bacterial activity (MIC), agar dilution. The conditions noted are these: Staphylococcus aureus, 209P, 18 h, Staph. aureus 209-P; agar dilution, about 10^6 CFU/ml, 18 hours, 37° C.; read-out: MIC. The essentials:
as §3

For assay [9], the system named is Morganella morganii EP-14. Nature of the assay: Anti-bacterial activity (MIC), agar dilution. The conditions noted are these: Morganella morganii, EP14, 18 h, about 10^6 CFU/ml, 37° C., read-out: MIC. The essentials:
as §3

Assay [10] has as its system Ser. marcescens ES-75. Put plainly: Anti-bacterial activity (MIC), agar dilution. The conditions noted are these: Serratia marcescens, ES75, 18 h, Ser. marcescens ES-75; agar dilution, about 10^6 CFU/ml, 18 hours, 37° C.; read-out: MIC. The essentials: as §3

Turning to `Nc1nc(/C(=N/OCF)C(=O)N[C@@H]2C(=O)N3C(C(=O)[O-])=C(/C=C/C[n+]4ccc(C(=O)O)cc4)CS[C@H]23)ns1` [Example 125, 7β-[2-(5-Amino-1,2,4-thiadiazol-3-yl)-(Z)-2-fluoromethoxyiminoacetamido]-3-[(E)-3-(4-carboxypyridinio)-1-propen-1-yl]-3-cephem-4-carboxylate], the minimum inhibitory concentration (MIC) was 25 µg/mL (≈ 44.4 µM) in [1]; 0.2 µg/mL (≈ 0.355 µM) in assay [2]; 6.25 µg/mL (≈ 11.1 µM) in [3]; 0.4 µg/mL (≈ 0.71 µM) in [4]; not above 0.025 µg/mL in assay [5]; not above 0.025 µg/mL in assay [6]. Moreover, the minimal inhibitory concentration (MIC) in [7] was 1.56 µg/mL (≈ 2.77 µM); in assay [8], 0.4 µg/mL (≈ 0.71 µM); in assay [9], not above 0.025 µg/mL; in assay [10], not above 0.025 µg/mL.
Regarding `C[N+]1(C/C=C/C2=C(C(=O)[O-])N3C(=O)[C@@H](NC(=O)/C(=N\OCF)c4nsc(N)n4)[C@H]3SC2)CCCC1` [Example 126, 7β-[2-(5-Amino-1,2,4-thiadiazol-3-yl)-(Z)-2-fluoromethoxyiminoacetamido]-3-[(E)-3-(1-methylpyrrolidinio)-1-propen-1-yl]-3-cephem-4-carboxylate], the MIC in assay [1] was 12.5 µg/mL (≈ 23.8 µM); in assay [2], 0.05 µg/mL (≈ 0.0951 µM); in assay [3] it was 1.56 µg/mL (≈ 2.97 µM); in assay [4], 0.05 µg/mL (≈ 0.0951 µM); in [5], not above 0.025 µg/mL; in [6], not above 0.025 µg/mL. Moreover, the minimum inhibitory concentration (MIC) is 0.8 µg/mL (≈ 1.52 µM) in [7], 0.1 µg/mL (≈ 0.19 µM) in assay [8], not above 0.025 µg/mL in [9] and 0.05 µg/mL (≈ 0.0951 µM) in [10].
Turning to `NC(=O)c1cc[n+](C/C=C/C2=C(C(=O)[O-])N3C(=O)[C@@H](NC(=O)/C(=N\OCF)c4nsc(N)n4)[C@H]3SC2)cc1` [Example 127, 7β-[2-(5-Amino-1,2,4-thiadiazol-3-yl)-(Z)-2-fluoromethoxyiminoacetamido]-3-[(E)-3-(4-carbamoylpyridinio)-1-propen-1-yl]-3-cephem-4-carboxylate], the MIC in assay [1] was 6.25 µg/mL (≈ 11.1 µM); in assay [2] it was not above 0.025 µg/mL; in assay [3], 3.13 µg/mL (≈ 5.56 µM); in [4], not above 0.025 µg/mL; in assay [5] it was not above 0.025 µg/mL; in assay [6], not above 0.025 µg/mL. Moreover, the MIC in [7] was 0.8 µg/mL (≈ 1.42 µM); in assay [8], 0.1 µg/mL (≈ 0.178 µM); in assay [9] it was not above 0.025 µg/mL; in assay [10] it was 0.05 µg/mL (≈ 0.0889 µM).
In the case of `C[N+](C)(C)C/C=C/C1=C(C(=O)[O-])N2C(=O)[C@@H](NC(=O)/C(=N\OCF)c3nsc(N)n3)[C@H]2SC1` [Example 128, 7β-[2-(5-Amino-1,2,4-thiadiazol-3-yl)-(Z)-2-fluoromethoxyiminoacetamido]-3-[(E)-3-(trimethylammonio)-1-propen-1-yl]-3-cephem-4-carboxylate], the minimal inhibitory concentration (MIC) in assay [1] is 25 µg/mL (≈ 50 µM); in assay [2], 0.1 µg/mL (≈ 0.2 µM); in [3] it was 3.13 µg/mL (≈ 6.27 µM); in [4], 0.1 µg/mL (≈ 0.2 µM); in assay [5], 0.05 µg/mL (≈ 0.1 µM); in assay [6], 0.05 µg/mL (≈ 0.1 µM). The MIC was 0.8 µg/mL (≈ 1.6 µM) in assay [7], 0.2 µg/mL (≈ 0.4 µM) in [8], 0.05 µg/mL (≈ 0.1 µM) in [9] and 0.1 µg/mL (≈ 0.2 µM) in assay [10].

In general, MIC refers to the least concentration at which growth counts as inhibited.

The record behind these values is patent US4921850A, “3-propenylcephem derivative” (Eisai Co., Ltd., priority 1986, dated 1990).
